Data set [1] is described as follows: Stability of the phosphonates and their esters during storage, by NMR. The note with it: for decrease of purity: pure oil, room temperature, argon atmosphere, 6 months. The data set is classed as physicochemical. As to the method: Stability of the purified phosphonates and their esterified precursor was analyzed by NMR after storage under the inert (pure argon) or ambient (air) atmosphere and in water solutions. ^1H, ^13C and ^31P NMR spectra were recorded at 400, 100.6, and 161.9 MHz, respectively with a Bruker Avance 400 spectrometer. Chemical shifts were calculated using D2O or CDCl3 as reference standards for trisodium salts and triesters, respectively. The spectra of the phosphonates and their esters before and after storage are shown in Supplementary Figures 1, 2 correspondingly.

Substrate in data set [2]: O=C(O)CCCC(=O)C(=O)O
Put plainly: OADH reaction catalyzed by the enzyme preparation from rat liver, low [OA] (high-affinity OA sites). The data set is classed as biochemical. The following applies: other: liver preparation, pH 7.0. As to the method:
(§1) Enzymes catalyzing OGDH and OADH reactions were enriched from rat hearts and livers using polyethylene glycol precipitation, as previously described (Artiukhov et al., [2020]).
(§2) The enzyme activities were assayed in the medium (pH 7.0) containing 50 mM MOPS, 1 mM ThDP, 1 mM MgCl2, 1 mM CaCl2, 1 mM dithiothreitol 0.15 mM Coenzyme A, 0.25 mM NAD^+ and various concentrations of 2-oxo substrates (0–10 mM OG or OA) and their phosphonate analogs (0–5,000 μM SP, GP, or AP). Reactions were started by addition of the enzyme preparations to the assay media. The amount of enzyme preparations (0.074 mg protein for the preparation from liver and 0.023 mg protein for the preparation from heart) were chosen to induce the lowest reliably measured reaction rate (ΔA340 = 0.001/min) at 0.01 mM OA without the phosphonates.
(§3) Reaction rates were calculated from linear parts of the product accumulation curves (up to 10 min, dependent on the reaction rate), excluding the initial region, where mixing the reagents and solubilization of the preparation affected the optical density. […]
(§4) The kinetic data were also analyzed by linear regression, using the known methods of the linearization of the Michaelis-Menten equation in the Lineweaver-Burk ( 1/a=1/Amax(1+Km/[S]) ) and Eadie-Hofstee ( a=Amax−Kmv/[S] ) coordinates. […]

Substrate in data set [3]: O=C(O)CCC(=O)C(=O)O
Put plainly: purified protein, by the assay type. The note with it: pH 7.0.

Substrate in data set [4]: O=C(O)CCCC(=O)C(=O)O
Put plainly: OADH reaction catalyzed by the enzyme preparation from rat liver, high [OA] (low-affinity OA sites). It counts as biochemical. The note with it: other: liver preparation, pH 7.0. As to the method:
as §1, §2, §3, §4

Substrate in data set [5]: O=C(O)CCCC(=O)C(=O)O
Put plainly: OADH reaction (OA saturation) catalyzed by the enzyme preparation from rat heart. The data set is classed as biochemical. The note with it: other: heart preparation; pH 7.0. As to the method: as §1, §2, §3, §4

The mark [6] stands for this setting: 0.2 M aqueous solution, 5 days of shelf storage, 31P NMR.

Values joined by “and” are separate entries in the source; they are usually repeats but may differ in a detail not shown here. Identical values can stand only once.

As for `CCOC(=O)CCC(=O)P(=O)(OCC)OCC` [TESP, triethyl succinyl phosphonate], the decrease of purity in data set [1] was 4–6%.
With `CCOC(=O)CCCC(=O)P(=O)(OCC)OCC` [TEGP, triethyl glutaryl phosphonate], the compound preserved result in data set [1] (setting [6]) is “about 80%”. The decrease of purity in data set [1] is reported as 4–6%.
Turning to `COC(=O)CCCCC(=O)P(=O)(OC)OC` [TMAP, trimethyl adipoyl phosphonate], the compound decomposed in data set [1] (setting [6]) came to 90%. Also, in data set [1], the decrease of purity is 4–6%.

B1: OADH (Rattus norvegicus) (protein)
chain: MASATVAAAGRALRRAVPLLRRSYQTERGVYGYRPRKAGSGEPRGDRARPSVDHGLARLVTVYCEHGHKAAQINPLFPGQALLDTVPEIQALVQTLQGPFTTTGLLNMGKEEASLEEVLAYLNHIYCGPISIETAQLQSQEEKDWFARRFEELKKETFTTEERKHLSKLLLESQEFDHFLATKFATVKRYGGEGAESMMGFFHELLKLSAYGGITDIIIGMPHRGRLNLLTGLLQLPPELMFRKMRGLSEFPENVAAIGDVLSHLTSSVDLDFGAHRPLHVTMLPNPSHLEAINPVAVGKTRGRQQSQEDGDYSPNGSAQPGDKVICLQVHGDASFCGQGIVLETFTLSNLPHFRIGGSIHLIVNNQLGYTTPAERGRSSLYSSDIGKLVGCAIIHVNGDSPEEVVRATRLAFEYQRQFRKDVIIDLLCYRQWGHNELDEPFFTNPVMYKIIRARKSIPDTYAEHLIASGLMTQEEVSDIKASYYAKLNGHLANVAHYSPPAPHLQARWQGLVQPAACVTTWDTGVPLELLRFVGVKSVEVPEELQLHSHLLKMYVQSRMEKVKNGTNLDWATAETLALGSLLAQGFNVRLSGQDVGRGTFSQRHAMVVCQNTDDVYIPLNHMDPNQKGFLEVSNSPLSEEAVLGFEYGMSIESPKLLPLWEAQFGDFFNGAQIIFDTFISGGEAKWLLQSGLVILLPHGYDGAGPDHSSCRIERFLQMCDSAEEGVDSDTVNMFVVHPTTPAQYFHLLRRQMMRNFRKPLIVASPKMLLRYPVAVSTLEEMAPGTAFKPVIGDSSVDPKNVKTLIFCSGKHFYALLKQRESLGAKKRDFAIIRLEELCPFPLDSLQQEMGKYKHVQDIIWSQEEPQNMGPWSFVYPRFEKQLACKLRLVSRPPLPAPAVGIGTVHQQQHEAILFKTFTS
B1: the Km (as a rule, the concentration of substrate that gives half-maximal velocity) in data set [2] is 8 ± 1 µM and 7.7 ± 0.8 µM.

B2: OGDH (Rattus norvegicus) (protein)
chain: SAPVAAEPFLSGTSSNYVEEMYCAWLENPKSVHKSWDIFFRNTNAGAPPGTAYQSPLSLSRSSLATMAHAQSLVEAQPNVDKLVEDHLAVQSLIRAYQIRGHHVAQLDPLGILDADLDSSVPADIISSTDKLGFYGLHESDLDKVFHLPTTTFIGGQEPALPLREIIRRLEMAYCQHIGVEFMFINDLEQCQWIRQKFETPGIMQFTNEEKRTLLARLVRSTRFEEFLQRKWSSEKRFGLEGCEVLIPALKTIIDMSSANGVDYVIMGMPHRGRLNVLANVIRKELEQIFCQFDSKLEAADEGSGDMKYHLGMYHRRINRVTDRNITLSLVANPSHLEAADPVVMGKTKAEQFYCGDTEGKKVMSILLHGDAAFAGQGIVYETFHLSDLPSYTTHGTVHVVVNNQIGFTTDPRMARSSPYPTDVARVVNAPIFHVNSDDPEAVMYVCKVAAEWRNTFHKDVVVDLVCYRRNGHNEMDEPMFTQPLMYKQIRKQKPVLQKYAELLVSQGVVNQPEYEEEISKYDKICEEAFTRSKDEKILHIKHWLDSPWPGFFTLDGQPRSMTCPSTGLEEDILTHIGNVASSVPVENFTIHGGLSRILKTRRELVTNRTVDWALAEYMAFGSLLKEGIHVRLSGQDVERGTFSHRHHVLHDQNVDKRTCIPMNHLWPNQAPYTVCNSSLSEYGVLGFELGFAMASPNALVLWEAQFGDFNNMAQCIIDQFICPGQAKWVRQNGIVLLLPHGMEGMGPEHSSARPERFLQMCNDDPDVLPNLQEENFDISQLYDCNWIVVNCSTPGNFFHVLRRQILLPFRKPLIVFTPKSLLRHPEARTSFDEMLPGTHFQRVIPEDGPAAQNPDKVKRLLFCTGKVYYDLTRERKARDMAEEVAITRIEQLSPFPFDLLLKEAQKYPNAELAWCQEEHKNQGYYDYVKPRLRTTIDRAKPVWYAGRDPAAAPATGNKKTHLTELQRFLDTAFDLDAFKKFS
notes: the tissue fractions with the complexes enriched to a degree allowing for a robust detection of the enzymatic activities, have been used; from tissue; host or cells: rat liver
In the case of B2, the Michaelis constant (Km) came to 450 ± 60 µM in data set [3] (other: heart preparation), 270 ± 60 µM in data set [3] (other: liver preparation), 450 ± 120 µM in data set [4] and 550 ± 70 µM in data set [5].

Source of the values: publication PMC7835950 (Frontiers in Chemistry, 2021).
